Active and inactive are the calls of the source. No cut-off for these calls is given here.
Tests used:
[1] = system: Ulva; experiment: Toxicity against Ulva conglobata at 50 ppm; format: organism-based; details: in vivo
[2] = system: Brachiomonas submarina; experiment: Antimicrobial activity against […] at 5 ppm; format: functional, organism-based
[3] = system: Ulva; experiment: Antifouling activity against Ulva conglobata spores assessed as germination and attachment rate at 1 ppm; format: functional
[4] = system: Prorocentrum micans; experiment: Antimicrobial activity against Prorocentrum micans at 5 ppm; format: functional, organism-based
[5] = system: Ulva; experiment: Antifouling activity against Ulva conglobata spores assessed as germination and attachment rate at 5 ppm; format: functional
[6] = system: Skeletonema costatum; experiment: Antimicrobial activity against Skeletonema costatum at 5 ppm; format: functional, organism-based
[7] = system: Anagnostidinema amphibium; experiment: Antimicrobial activity against Oscillatoria amphibia at 5 ppm; format: functional, organism-based
[8] = system: Anagnostidinema amphibium; experiment: Antimicrobial activity against Oscillatoria amphibia at 1 ppm; format: functional, organism-based
[9] = system: Brachiomonas submarina; experiment: Antimicrobial activity against […] at 1 ppm; format: functional, organism-based

| Structure (SMILES) | Activity [1] | Activity [2] | Activity [4] | Activity [7] | also measured |
| --- | --- | --- | --- | --- | --- |
| CCCCCCCCCCCCC/C=C/[C@@H](O)[C@H](CO)NC(=O)CCCCCCCCCCCCCCC | Non-toxic |  |  |  |  |
| CCCCCCCCCCCCC/C=C/[C@@H](O)[C@H](CO)NC(=O)CCCCCCC | Non-toxic |  |  |  |  |
| CCCCCCCCCCCCC/C=C/[C@@H](O)[C@@H](N)CO [SPHINGOSINE] |  | Active | Active | Active | Activity [3]: 15%; Activity [5]: 0%; Activity [6]: Active |
| CCCCCCCCCCCCCCCCCCCCCC(=O)N[C@@H](CO)[C@H](O)/C=C/CCCCCCCCCCC(C)C | Non-toxic |  |  |  |  |
| CCCCCCCCCCCCC/C=C/[C@@H](O)[C@H](CO)NC(=O)CCCCC | Non-toxic |  |  |  |  |
| CCCCCCCCCCCCC/C=C/[C@@H](O)[C@H](CO)NC(C)=O | Non-toxic |  |  |  |  |
| CCCCCCCCCCCCCCC[C@@H](O)[C@@H](N)CO |  | Active | Active | Active | Activity [8]: Active; Activity [9]: Active |
| CCCCCCCCCCCCC/C=C/[C@@H](O)[C@H](CO)N(C)C |  | Active | Active | Active | Activity [5]: Active; Activity [6]: Active |
